# EP0888346B1, “CORALYNE ANALOGS AS TOPOISOMERASE INHIBITORS” (RUTGERS, THE STATE UNIVERSITY OF NEW JERSEY, priority 1996, dated 1997)
# Where “and” joins values, the source holds several entries; their conditions need not be identical. Identical values can stand only once. Like-named read-outs stand apart in the source and are kept apart here.
# Key:
# [1] = test system: yeast cells expressing human topoisomerase I; experiment: Yeast cytotoxicity assay, strain expressing human topo I; format: cell-based, S. cerevisiae; details: plates with 1 µM drug (camptothecin 0.5 µM), 3 days at 30°C
# Text: (§1) It has been established that yeast can survive when topoisomerase I function is obliterated, and that the topoisomerase I poisons only kill cells having a functional topoisomerase I (Bjornsti et al. Cancer Res. 49:6318-6323 (1989)).
# (§2) The topoisomerase I-specific in vivo cytotoxicity assay was adapted from Knab et al. (Knab et al., J. Biol. Chem. 268:22322-22330 (1993)). In this system, various topo I genes cloned into the single copy yeast plasmid vector, YCpGAL1 (Knab et al., J. Biol. Chem. 268:22322-22330 (1993)), are expressed under the control of the GAL1 promoter in the JN2-134 strain of S. cerevisiae (MATa, rad52::LEU2, trp1, ade2-1,his7, ura3-52, isel, top1-1, leu2) (Bjornsti et al., Cancer Res. 49:6318-6323 (1989)). The topo I constructs in the vector are, respectively, the wild-type yeast topo I (YCpGAL-ScTOP1), a non-functional yeast topo I where the active site tyrosine-727 is mutated to a phenylalanine (YCpGAL1-Sctop1Y727F) (Knab et al., J. Biol. Chem. 268:22322-22330 (1993)), and the wild type human topoisomerase I (YCpGAL-hTOP1) (Bjornsti et al., Cancer Res. 49:6318-6323 (1989)). To qualitatively test the cytotoxicity and the topo I specificity of the drugs, yeast cells containing the specific plasmid were serially diluted (5-fold) and were grown in dropout medium supplemented with uracil and 2% galactose In addition, the plates contained: A: Control, no drug in the plate; B: Camptothecin (CPT), 0.5 µM; C: Coralyne, 1 µM; D: Methylenedioxy-dihydro-demethyl-coralyne (MDD-Coralyne), 1 µM, and E: Nitidine, 1 µM. The plates were grown for 3 days at 30°C to assess the lethal effect of the different compounds on the various topoisomerase I enzymes expressed in S. cerevisiae.and the drug being tested.
# [2] = test system: yeast cells expressing functional yeast topoisomerase I; experiment: Yeast cytotoxicity assay, strain expressing wild-type yeast topo I; format: cell-based, S. cerevisiae; details: plates with 1 µM drug (camptothecin 0.5 µM), 3 days at 30°C
# Text: as §1, §2
# [3] = test system: yeast cells expressing non-functional yeast topoisomerase I; experiment: Yeast cytotoxicity assay, strain expressing non-functional yeast topo I; format: cell-based, S. cerevisiae; details: plates with 1 µM drug (camptothecin 0.5 µM), 3 days at 30°C
# Text: as §1, §2
# [4] = test system: Human lymphoblast RPMI 8402 cells; experiment: MTT-microtiter plate tetrazolinium cytotoxicity assay (MTA); format: cell-based; details: for IC50: Homo sapiens, RPMI 8402, 96 h
# Text: (§3) The results were plotted and the IC50 then measured.
# [5] = test system: human epidermoid carcinoma KB 3-1 cell line; experiment: MTA cytotoxicity assay, epidermoid carcinoma cells; format: cell-based; details: KB 3-1, 96 h
# Procedure: as §3
# (§4) The coralyne analog 7c was tested for its effectiveness against glioblastoma cells. The assay used was similar to that described above for the RPMI-8402 cell line. The results are shown in table 2 below which compares the effect of Compound 7c against the leukemia cell line (RPMI 8402), epidermal carncinoma (KB3-1) and glioblastoma (SF-268): Table 2
# [6] = test system: glioblastoma cell line SF-268; experiment: MTA cytotoxicity assay, glioblastoma cells; format: cell-based; details: for IC50: Homo sapiens, SF-268, 96 h, read-out: Cytotoxicity SF-268
# Procedure: as §3, §4
# [7] = biological target: T1, human topoisomerase I (Homo sapiens, UniProt P11387); experiment: Topo I cleavage assay (plasmid YEpG DNA); format: biochemical; details: for Topo I-mediated DNA cleavage (REC, Relative Effective Concentration): concentration relative to camptothecin (CPT) = 1 producing the same cleavage on the plasmid DNA
# T1 construct: 15 amino acid vector-derived fusion (pET-11a leader); made in house; host or cells: E. coli BL21(DE3)
# T1 sequence (P11387 1-765): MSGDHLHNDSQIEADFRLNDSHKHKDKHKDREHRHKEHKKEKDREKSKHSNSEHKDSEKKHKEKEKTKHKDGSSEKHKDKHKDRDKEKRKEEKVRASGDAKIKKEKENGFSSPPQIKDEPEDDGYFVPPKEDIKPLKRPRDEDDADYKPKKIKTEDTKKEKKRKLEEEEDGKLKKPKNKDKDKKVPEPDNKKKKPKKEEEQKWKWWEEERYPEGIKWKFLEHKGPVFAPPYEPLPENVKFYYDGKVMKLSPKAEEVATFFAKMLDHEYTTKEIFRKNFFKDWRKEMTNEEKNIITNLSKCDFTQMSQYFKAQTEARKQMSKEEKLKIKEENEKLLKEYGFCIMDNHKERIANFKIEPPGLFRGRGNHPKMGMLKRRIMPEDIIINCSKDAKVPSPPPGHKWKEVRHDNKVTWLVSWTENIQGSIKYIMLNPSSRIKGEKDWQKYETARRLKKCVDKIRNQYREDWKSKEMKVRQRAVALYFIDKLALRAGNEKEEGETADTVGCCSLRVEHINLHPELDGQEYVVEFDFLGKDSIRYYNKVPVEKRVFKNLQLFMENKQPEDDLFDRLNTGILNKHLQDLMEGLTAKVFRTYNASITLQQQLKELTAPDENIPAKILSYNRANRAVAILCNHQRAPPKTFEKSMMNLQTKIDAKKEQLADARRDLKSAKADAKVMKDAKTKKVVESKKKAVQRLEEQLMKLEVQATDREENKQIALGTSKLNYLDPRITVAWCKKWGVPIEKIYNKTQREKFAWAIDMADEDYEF
# Text: To obtain large quantity of human topoisomerase I, the human topoisomerase I cDNA was cloned into the pET-11a vector, in which transcription of the cDNA is under the control of the inducible T7 promoter (Studier et al., Methods in Enzymol., Vol. 185:60-89, San Diego: Academic Press (1990)). Briefly, a 3.4 kb DNA fragment containing the entire coding sequence of human topoisomerase I and approximately 1 kb of untranslated region downstream of the stop codon was isolated from the plasmid YCpGAL1-hTOP1 (Bjornsti et al., Cancer Res. 49:6318-6323 (1989)) by cutting at the BamHI and EcoRI sites. The vector pET-11a was cut with the same restriction enzymes, dephosphorylated and ligated to the insert in the proper reading-frame downstream of the vector cloning site. The ligation mixture was used to transform E. coli, the correct clone pET1B was isolated (see figure 2A for the map) and its identity confirmed by restriction mapping. Since the translational start in pET is positioned at an upstream NdeI site, the expressed topoisomerase I has a 15 amino acid fusion at its N-terminus. pET1B was then transformed into E. coli BL21(DE3), and, upon induction with 0.4 mM IPTG for 1 hour, the bacterial lysate was analyzed by 10 % SDS-PAGE. Expression was confirmed by Western blotting using rabbit antibodies against human topoisomerase I. Isolation of the expressed protein was done by a simple procedure. Briefly, E. coli cells were lysed by repeated sonic bursts. The sonic extract was made in 1 M NaCl and 6% polyethylene glycol (PEG) to remove nucleic acids. The PEG supernatant was chromatographed directly on a hydroxyapatite column. Expressed human DNA topoisomerase I was eluted at the 0.6 M potassium phosphate step. The eluted enzyme was dialyzed against 50% glycerol, 30 mM potassium phosphate (pH 7.0), 1 mM dithiothreitol (DTT) and 0.1 mM EDTA and stored at -20°C.
# (§5) Cleavage assays for the recombinant topoisomerases I and calf thymus topoisomerases I and II were done as described (Liu et al., J. Biol. Chem. 258:15365-15370 (1983)). The plasmid YEpG DNA used for the cleavage assays was prepared and labeled at its 3'-end using the published procedures.
# [8] = test system: calf thymus topoisomerase II; experiment: Topo II cleavage assay (plasmid YEpG DNA); format: biochemical; details: concentration relative to VM-26 = 1 producing the same cleavage on the plasmid DNA
# Text: The plasmid pET11a and the E. coli strain BL21(DE3) used for enzyme expression were purchased from Novagen. IPTG was purchased from Sigma. The ECL system used for the Western blotting analysis of bacterial lysates was from Amersham (UK). All the restriction enzymes and Vent polymerase were from New England Biolabs. Mammalian topoisomerase II was isolated from calf thymus glands according to the published procedure (Halligan et al., J. Biol. Chem. 260:2475-2482 (1985)). The single copy yeast plasmids YCpGAL1 expressing various topoisomerase I genes in JN2-134 yeast strain were a kind gift of Dr. M-A. Bjornsti (Thomas Jefferson University, Philadelphia, PA). All bacterial and yeast media were from Difco (Detroit, MI), while cell culture media were purchased from Gibco-BRL (Gaithersburg, MD).
# as §5
# [9] = test system: camptothecin-resistant CPT-K5 cells; experiment: MTT-microtiter plate tetrazolinium cytotoxicity assay (MTA), camptothecin-resistant cells; details: Homo sapiens, CPT-K5, 96 h, read-out: Cytotoxicity IC50 CPT-K5
# Procedure: The IC50 of the drugs tested were determined by the MTT-microtiter plate tetrazolinium cytotoxicity assay (MTA) (Mosmann, T., J. Immunol. Methods 65:55-63 (1983); Denizot et al., J. Immunol. Methods 89:271-277 (1986)). Human lymphoblast RPMI 8402 cells and their camptothecin-resistant CPT-K5 cells (Andoh et al., Proc. Natl. Acad. Sci., USA 84:5565-5569 (1987)) were kindly provided by Dr. Toshiwo Andoh (Aichi Cancer Center Research Institute, Nagoya, Japan). […] Cells (2000 cells/well, seeded in […] growth medium) were grown in suspension at 37°C in 5% CO2 and maintained by regular passage in RPMI medium supplemented with 10% heat inactivated fetal bovine serum, L-glutamine (2 mM), penicillin (100 U/ml), and streptomycin (0.1 mg/ml). The cells were exposed continuously for 4 days to different drug concentrations, and assayed at the end of the fourth day. Each concentration and the no drug control were repeated at least twice in 6 replica wells. The results were plotted and the IC50 then measured. The drug sensitive human epidermoid carcinoma KB 3-1 cell line and its vinblastine-selected multidrug-resistant variant KB-V1 cells (Akiyama et al., Genetics 11:117-126 (1985)) were kindly provided by Dr. Michael Gottesmann (National Cancer Institute). They were grown as monolayer cultures at 37°C in 5% CO2 and maintained by regular passage in Dulbecco's minimal essential medium supplemented with 10% heat inactivated fetal bovine serum. KB-V1 cells were maintained in the presence of […] vinblastine.
# [10] = read-out: Cytotoxicity IC50 RPMI
Compound,"Topo I-mediated DNA cleavage (REC, Relative Effective Concentration) [7]","Topo II-mediated DNA cleavage (REC, Relative Effective Concentration) [8]","IC50 [4, 10] [µM]",IC50 [9] [µM],also measured
Methylenedioxy-dihydro-demethyl-coralyne [MDD-coralyne],,,,,cytotoxicity against yeast cells expressing human topoisomerase I (in words) [1]: highly cytotoxic; cytotoxicity against yeast cells expressing functional yeast topoisomerase I (in words) [2]: not cytotoxic; cytotoxicity against yeast cells expressing non-functional yeast topoisomerase I (in words) [3]: not cytotoxic
COc1cccc2c1C(=O)c1c(O)c3c(c(O)c1C2=O)C[C@@](O)(C(=O)CO)C[C@@H]3O[C@H]1C[C@H](N)[C@H](O)[C@H](C)O1 [doxorubicine],,,,,"IC50 ([4]; leukemia cell line, Table 2, read-out: Cytotoxicity RPMI 8402): 0.8 µg/mL; IC50 ([5]; epidermal carcinoma, Table 2, read-out: Cytotoxicity KB3-1): 0.1 µg/mL; IC50 ([6]; glioblastoma, Table 2): 0.8 µg/mL"
"COc1cc([C@@H]2c3cc4c(cc3[C@@H](O[C@@H]3O[C@@H]5CO[C@@H](c6cccs6)O[C@H]5[C@H](O)[C@H]3O)[C@H]3COC(=O)[C@H]23)OCO4)cc(OC)c1O [VM-26, reference compound]",>1000,1,0.3,0.5,

# Now from value to compound, other results behind:
"Topo I-mediated DNA cleavage (REC, Relative Effective Concentration) [7]",Compound,"Topo II-mediated DNA cleavage (REC, Relative Effective Concentration) [8]","IC50 [4, 10] [µM]",IC50 [9] [µM],also measured
10,"COc1cc2cc3[n+](c(C)c2cc1OC)CCc1c-3ccc2c1OCO2 [Compound 7c, 5,6-Dihydro-8-methyl-3,4-methylenedioxy-10,11-dimethoxydibenzo[a,g]quinolizinium acetosulfate]",30,0.6,6.1,IC50 ([4]; read-out: Cytotoxicity RPMI 8402): 0.3 µg/mL; IC50 ([5]; read-out: Cytotoxicity KB3-1): 0.06 µg/mL; cytotoxicity against glioblastoma cells (in words) [6]: exceptional cytotoxicity; IC50 [6]: 0.008 µg/mL
>1000,"COc1cc2cc3[n+](cc2cc1OC)CCc1c-3ccc(OC)c1OC.[Cl-] [Compound 8b, 5,6-Dihydro-3,4,10,11-tetramethoxydibenzo[a,g]quinolizinium chloride]",1000,9,6.4,
1,"COc1cc2cc3[n+](cc2cc1OC)CCc1c-3ccc2c1OCO2.[Cl-] [Compound 8c, 5,6-Dihydro-3,4-methylenedioxy-10,11-dimethoxydibenzo[a,g]quinolizinium chloride]",50,8.1,27,EC (total cleavage) ([7]; read-out: concentration giving total cleavage of DNA in the presence of topoisomerase I): 0.27 µM and 0.1 µg/mL
>1000,"Cc1nc(-c2ccc(O)c(O)c2)cc2cc(O)c(O)cc12 [Compound 13, 6,7-Dihydroxy-1-methyl-3-(3,4-dihydroxyphenyl)isoquinoline]",>1000,7.1,99,cytotoxicity against RPMI 8402 cells (in words) [4]: appreciable cytotoxicity
>1000,"COc1ccc(Cc2nccc3c4c(ccc23)OCO4)cc1OC [Compound 9c, 5,6-Methylenedioxy-1-(3,4-dimethoxybenzyl)isoquinoline]",>1000,9.3,15,cytotoxicity against RPMI 8402 cells (in words) [4]: appreciable cytotoxicity
